Structures are written as SMILES.

For the assay, the target named is T1, PAR4 (Homo sapiens, UniProt Q96RI0).
T1 construct: expressed in transfected cells; host or cells: HEK293 PAR4 Clone 1.2A (BMS Arctic ID 383940)
T1 sequence (Q96RI0 18-385): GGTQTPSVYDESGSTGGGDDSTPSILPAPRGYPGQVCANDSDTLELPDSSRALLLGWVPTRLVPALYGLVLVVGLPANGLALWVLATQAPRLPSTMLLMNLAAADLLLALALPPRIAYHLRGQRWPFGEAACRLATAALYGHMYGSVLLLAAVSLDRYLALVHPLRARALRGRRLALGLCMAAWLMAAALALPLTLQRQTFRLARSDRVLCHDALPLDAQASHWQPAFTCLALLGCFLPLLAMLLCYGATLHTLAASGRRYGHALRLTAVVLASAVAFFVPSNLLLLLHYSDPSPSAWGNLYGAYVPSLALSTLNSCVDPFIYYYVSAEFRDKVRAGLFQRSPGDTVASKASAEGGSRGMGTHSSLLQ
Description: PAR4 FLIPR assay (antagonism of agonist peptide-induced calcium mobilization). In kind it is cell-based. In short, it runs like this:
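Antagonism was taken as block of calcium mobilization evoked by the agonist peptide H-Ala-Phe(4-F)-Pro-Gly-Trp-Leu-Val-Lys-Asn-[…]-NH2, added after 30 min room-temperature compound preincubation in dye-loaded PAR4-transfected HEK293 cells (endogenous PAR1). Fluorescence was read on FDSS, with compound addition alone used as the agonist counter-screen; values come from 11-point concentration-response curves.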
Consider `COc1cnc2c(-c3nc4cc(F)c5c(c4s3)C[C@@H](CNC(=O)OC3CCOCC3)O5)cc(C)cc2n1` [Example 245, (S)-tetrahydro-2H-pyran-4-yl ((5-fluoro-2-(2-methoxy-7-methylquinoxalin-5-yl)-7,8-dihydrobenzofuro[5,4-d]thiazol-7-yl)methyl)carbamate], for which the IC50 was found to be 24 nM.

Take `COc1cnc2c(-c3nc4cc(F)c5c(c4s3)C[C@@H](CNC(=O)OCC(C)C)O5)cc(C)cc2n1` [Example 246, (S)-isobutyl ((5-fluoro-2-(2-methoxy-7-methylquinoxalin-5-yl)-7,8-dihydrobenzofuro[5,4-d]thiazol-7-yl)methyl)carbamate]: the IC50 came to 5 nM.

Regarding `COc1cnc2c(-c3nc4cc(F)c5c(c4s3)C[C@@H](CNC(=O)OCCF)O5)cc(C)cc2n1` [Example 247, (S)-2-fluoroethyl ((5-fluoro-2-(2-methoxy-7-methylquinoxalin-5-yl)-7,8-dihydrobenzofuro[5,4-d]thiazol-7-yl)methyl)carbamate], the IC50 is 0.7 nM.

Take `COc1cnc2c(-c3nc4cc(F)c5c(c4s3)C[C@@H](CNC(=O)Nc3ccccc3)O5)cc(C)cc2n1` [Example 248, (S)-1-((5-fluoro-2-(2-methoxy-7-methylquinoxalin-5-yl)-7,8-dihydrobenzofuro[5,4-d]thiazol-7-yl)methyl)-3-phenylurea]: the IC50 came out at 7 nM.

For `COc1cnc2c(-c3nc4cc(F)c5c(c4s3)C[C@@H](CNC(=O)OCC(F)(F)F)O5)cc(C)cc2n1` [Example 249, (S)-2,2,2-trifluoroethyl ((5-fluoro-2-(2-methoxy-7-methylquinoxalin-5-yl)-7,8-dihydrobenzofuro[5,4-d]thiazol-7-yl)methyl)carbamate], the IC50 was determined as 1 nM.

For `COCCOC(=O)NC[C@@H]1Cc2c(c(F)cc3nc(-c4cc(C)cc5nc(OC)cnc45)sc23)O1` [Example 250, (S)-2-methoxyethyl ((5-fluoro-2-(2-methoxy-7-methylquinoxalin-5-yl)-7,8-dihydrobenzofuro[5,4-d]thiazol-7-yl)methyl)carbamate], the IC50 is 2.3 nM.

On to `COc1cnc2c(-c3nc4cc(F)c5c(c4s3)C[C@](C)(COC(=O)Nc3cnc(OCCO)nc3)O5)cc(C)cc2n1` [Example 251, (R)-(5-fluoro-2-(2-methoxy-7-methylquinoxalin-5-yl)-7-methyl-7,8-dihydrobenzofuro[5,4-d]thiazol-7-yl)methyl (2-(2-hydroxyethoxy)pyrimidin-5-yl)carbamate], for which the IC50 turned out to be 0.9 nM.

`COc1cnc2c(-c3nc4cc(F)c5c(c4s3)[C@@H](C)[C@H](COC(=O)Nc3cnc(OCCO)nc3)O5)cc(C)cc2n1` [Example 252, ((7R,8R)-5-fluoro-2-(2-methoxy-7-methylquinoxalin-5-yl)-8-methyl-7,8-dihydrobenzofuro[5,4-d]thiazol-7-yl)methyl (2-(2-hydroxyethoxy)pyrimidin-5-yl)carbamate]: the IC50 was 88 nM.

With `COc1cnc2c(-c3nc4cc(F)c5c(c4s3)[C@H](C)[C@@H](CO)O5)cc(Cl)cc2n1` [Example 253, ((7S,8S)-2-(7-chloro-2-methoxyquinoxalin-5-yl)-5-fluoro-8-methyl-7,8-dihydrobenzofuro [5,4-d]thiazol-7-yl)methanol], the IC50 is 2.7 nM.

As to `COc1cnc2c(-c3nc4cc(F)c5c(c4s3)[C@H](C)[C@@H](CO)O5)cc(C#N)cc2n1` [Example 254, 8-((7S,8S)-5-fluoro-7-(hydroxymethyl)-8-methyl-7,8-dihydrobenzofuro[5,4-d]thiazol-2-y 1)-3-methoxyquinoxaline-6-carbonitrile], the IC50 turned out to be 0.6 nM.

Consider `COC(=O)NC[C@H]1Oc2c(F)cc3nc(-c4cc(C)cc5nc(OC)cnc45)sc3c2[C@@H]1C` [Example 255, Methyl (((7S,8S)-5-fluoro-2-(2-methoxy-7-methylquinoxalin-5-yl)-8-methyl-7,8-dihydrobenzofuro[5,4-d]thiazol-7-yl)methyl)carbamate], for which the IC50 worked out at 1.4 nM.

`COc1cnc2c(-c3nc4cc(F)c5c(c4s3)[C@H](C)[C@@H](CNC(=O)OCC(C)C)O5)cc(C)cc2n1` [Example 256, Isobutyl (((7S,8S)-5-fluoro-2-(2-methoxy-7-methylquinoxalin-5-yl)-8-methyl-7,8-dihydrobenzofuro[5,4-d]thiazol-7-yl)methyl)carbamate]: the half-maximal inhibitory concentration (IC50) was determined as 0.7 nM.

Take `COc1cnc2c(-c3nc4cc(F)c5c(c4s3)C[C@@H](CNC(=O)NC3CC3)O5)cc(C)cc2n1` [Example 257, (S)-1-cyclopropyl-3-((5-fluoro-2-(2-methoxy-7-methylquinoxalin-5-yl)-7,8-dihydrobenzofuro[5,4-d]thiazol-7-yl)methyl)urea]: the IC50 was determined as 50 nM.

As for `COc1cnc2c(-c3nc4cc(F)c5c(c4s3)C[C@@H](CNC(=O)N3CCOCC3)O5)cc(C)cc2n1` [Example 258, (S)-N-((5-fluoro-2-(2-methoxy-7-methylquinoxalin-5-yl)-7,8-dihydrobenzofuro[5,4-d]thiazol-7-yl)methyl)morpholine-4-carboxamide], the IC50 stood at 8.1 nM.

In the case of `CCOc1cnc2c(-c3nc4cc(F)c5c(c4s3)[C@H](C)[C@@H](CO)O5)cc(C)cc2n1` [Example 259, ((7S,8S)-2-(2-ethoxy-7-methylquinoxalin-5-yl)-5-fluoro-8-methyl-7,8-dihydrobenzofuro[5,4-d]thiazol-7-yl)methanol], the IC50 amounted to 1.1 nM.

Take `CCOC(=O)NC[C@@H]1Cc2c(c(F)cc3nc(-c4cc(C)cc5nc(OC)cnc45)sc23)O1` [Example 260, (S)-ethyl ((5-fluoro-2-(2-methoxy-7-methylquinoxalin-5-yl)-7,8-dihydrobenzofuro[5,4-d]thiazol-7-yl)methyl)carbamate]: the IC50 came out at 1 nM.

On to `COc1cnc2c(-c3nc4cc(F)c5c(c4s3)C[C@@H](CNC(=O)OCC(C)(C)C)O5)cc(C)cc2n1` [Example 261, (S)-neopentyl ((5-fluoro-2-(2-methoxy-7-methylquinoxalin-5-yl)-7,8-dihydrobenzofuro[5,4-d]thiazol-7-yl)methyl)carbamate], for which the IC50 worked out at 1.1 nM.

Regarding `COc1cnc2c(-c3nc4c(C(O)C(C)(C)C)cc5c(c4s3)OCCO5)cc(C)cc2n1` (stereo not drawn) [Example 262, 1-(2-(2-methoxy-7-methylquinoxalin-5-yl)-7,8-dihydro-[1,4]dioxino[2′,3′:3,4]benzo[1,2-d]thiazol-4-yl)-2,2-dimethylpropan-1-ol], the IC50 turned out to be 2.3 nM.

Regarding `COc1cnc2c(-c3nc4c(C(O)C(C)(C)C)cc5c(c4s3)OCO5)cc(C)cc2n1` (stereo not drawn) [Example 263, 1-(7-(2-methoxy-7-methylquinoxalin-5-yl)-[1,3]dioxolo[4′,5′:3,4]benzo[1,2-d]thiazol-5-yl)-2,2-dimethylpropan-1-ol], the half-inhibitory concentration (IC50) was 5.7 nM.

Take `COc1cnc2c(-c3nc4c(C(O)C(C)(C)C)cc5c(c4s3)OCCCO5)cc(C)cc2n1` (stereo not drawn) [Example 264, 1-(2-(2-methoxy-7-methylquinoxalin-5-yl)-8,9-dihydro-7H-[1,4]dioxepino[2′,3′:3,4]benzo[1,2-d]thiazol-4-yl)-2,2-dimethylpropan-1-ol]: the IC50 came to 15 nM.

On to `COc1cnc2c(-c3nc4ccc5c(c4s3)OC[C@H](COC(=O)Nc3cnc(C)nc3)O5)cc(Cl)cc2c1` [Example 266, (R)-(2-(6-chloro-3-methoxyquinolin-8-yl)-7,8-dihydro-[1,4]dioxino[2′,3′:3,4]benzo[1,2-d]thiazol-7-yl)methyl (2-methylpyrimidin-5-yl)carbamate], for which the IC50 is 2.1 nM.
